One compound from US3933859A, “Dihydrocoumarin derivatives” (Hoffmann-La Roche, Inc., priority 1970, dated 1976) can be followed below.

Structures can show the parent of a compound that is named as a salt.

One data set concerns noradrenaline. Put plainly: noradrenaline content lowering after oral administration to rats. It counts as in vivo, rat. Conditions: five separate oral doses each 300 μmol/kg over 48 hours. As for the experimental part:
(§1) The novel compounds of formulae VII and VIII and their salts are useful for lowering the blood-pressure and for chemical sympathectomy. Thus, for example, after orally administering five separate doses each comprising 300 μmol/kg of L-6,7-diacetoxy-3-amino-hydrocoumarin hydrochloride to rats over a period of 48 hours, the noradrenaline content is lowered in the heart to 28% and in the brain to 85% of the controls. The LD50 of this hydrochloride amounts to 30-60 mg/kg i.v., 250-500 mg/kg s.c. and 1,000-2,000 mg/kg p.o.

The nature of data set [1]: LD50 of the hydrochloride. Conditions: in vivo. As for the experimental part: as §1

As for `CC(=O)Oc1cc2c(cc1OC(C)=O)OC(=O)[C@@H](N)C2` [L-6,7-diacetoxy-3-aminohydrocoumarin hydrochloride], the “noradrenaline content in the brain, lowered to % of the controls” value with noradrenaline (brain) was 85%. Moreover, the “noradrenaline content in the heart, lowered to % of the controls” value in the data set on noradrenaline (heart) is recorded as 28%. In addition, the LD50 (commonly the dose expected to kill half of the subjects tested) in data set [1] (iv) lay in the range of 30 to 60 mg/kg; in data set [1] (po), 1000 to 2000 mg/kg; in data set [1] (sc), 250 to 500 mg/kg.
